{"source": "patent US20030176316A1", "about": "“Methods for treatment of rheumatoid arthritis” (priority 2001, published 2003)", "key": {"[1]": {"molecular_target": "T1, GST-cGB-PDE5 fusion protein (cGMP binding sites of human PDE5A) (Homo sapiens, UniProt O76074)", "T1 construct": "made in house; host or cells: E. coli BL21 (DE3)", "assay": "cGMP binding assay with GST-cGB-PDE5 fusion protein", "source_text": "RT-PCR method is used to obtain the cGB domain of PDE5 with forward and reverse primers designed from bovine PDE5A cDNA sequence (McAllister-Lucas L. M. et al., J Biol. Chem. 268, 22863-22873, 1993) and the selection among PDE 1-10 families. 5′-3′, Inc. kits for total RNA followed by oligo (dT) column purification of mRNA are used with HT-29 cells. […] It is then cloned into pGEX-5×-3 glutathione-S-transferase (GST) fusion vector (Pharmacia Biotech )with tac promoter, and EcoRI and XhoI cut sites. The fusion vector is then transfected into E. Coli BL21 (DE3) bacteria (Invitrogen). The transfected BL21 bacteria is grown to log phase, and then IPTG is added as an induce. The induction is carried at 20° C. for 24 hrs. The bacteria are harvested and lysed. The soluble cell lysate is incubated with GSH conjugated Sepharose 4B (GSH-Sepharose 4B). The GST-cGB-PDE5 fusion protein can bind to the GSH-Sepharose beads, and the other proteins are washed off from beads with excessive cold PBS.\nThen, the mixture is transferred to Brandel MB-24 cell harvester with GF/B as the filter membrane followed by 2 washes with 10 mL of cold 5 mM potassium buffer(pH 6.8). The membranes are then cut out and transferred to scintillation, vials followed by the addition of 1 mL of H2O and 6 mL of Ready Safe™ liquid scintillation cocktail to each vial. The vials are counted on a Beckman LS 6500 scintillation counter.\nThe quenching by filter membrane or other debris are also calibrated."}, "U937 cells": {"tested_on": "U937 cells", "assay": "apoptosis induction of U937 cells (active caspase 3, indirect immunofluorescence)", "type": "cell-based", "conditions": "24 hours", "description": "U937 cells (from ATCC Rockville, Md.) were grown in RPMI media supplemented with 5% FCS, glutamine, antibiotic/antimycotic and sodium pyruvate. Total RNA was isolated from two U937 cultures, one treated with 5nM TPA for 48 hours and one grown in normal media as listed above, using the Rouche High Pure RNA Isolation Kit (cat# 1 828 665) as per manufacturers protocol. cDNA was then synthesized from the total RNA using GibcoBRL Superscriptll (Cat# 18064-022) reverse transcriptase as per manufacturers protocol. The resulting cDNA was used as a template for RT-PCR reactions using primer sets specific for PDE2 (forward: […], reverse: […]) or PDE5 (forward: […], reverse: […]). mRNA for PDE2 and 5 were both present in the untreated U937 cells. Upon treatment with TPA, the relative amounts of PDE2 mRNA increased 5 fold. Therefore, U937 cells treated with TPA and driven to differentiate into an activated macrophage like state have elevated levels of PDE2 mRNA (see FIG. 1).\nThe presence of PDE2 and PDE5 protein within U937 cells was confirmed by indirect immunofluorescence (IIF). U937 cells were cultured as above. Two U937 cultures, one grown in the presence of 5 nM TPA for 48 hours and one grown in normal media were processed. All cultures were collected by centrifugation (Shandon Cytospin, 2 minutes @ 600 rpm) onto poly-L lysine-coated slides and immediately fixed in fresh 3% paraformaldehyde buffered in PBS for 10 minutes. Adherent cultures were grown on coverslips and fixed as above. Cells were permeablized in 0.2% triton-100 for 2 minutes. Slides were blocked with blocking buffer (5% goat serum, 5% glycerol, 1% gelatin from cold water fish skin and 0.04% NaN3 in PBS) for 1 hour at room temperature.\nSlides were then incubated for 1 hour at 37° C. in a humid chamber with antibodies specific for PDE2 (generated in a sheep against the peptide […]) or PDE5 (generated in sheep against the peptide […]). […]\nThe level of apoptosis in U937 cells was quantified by scoring 500 consecutive cells for the presence of active caspase 3. […]"}, "[2]": {"assay": "seven-day dose-range finding study in rats", "type": "in vivo", "conditions": "seven days, 2000 mg/kg/day"}, "28-day study in rats": {"assay": "28-day study in rats", "type": "in vivo", "conditions": "28 days, 50 and 500 mg/kg/day", "description": "A 28-day study in rats was also carried out at 0, 50, 500 and 2000 mg/kg/day."}, "[3]": {"assay": "long-term safety assessment study in rats, 91 days", "type": "in vivo", "source_text": "These changes were not associated with any gross clinical abnormality."}, "[4]": {"assay": "91-day oral study in dogs", "type": "in vivo", "conditions": "91 days, highest dose group"}, "PDE 5": {"molecular_target": "PDE 5 (Homo sapiens, UniProt O76074)", "assay": "competitive (with cGMP) binding to PDE5"}}, "note": "Structures can show the parent of a compound that is named as a salt. Where two headings read alike, the source gives them in different places."}
{"smiles": "CCCCOC1C2OP(=O)(O)OCC2OC1n1cnc2c(N)ncnc21", "note": "(centres unmarked) [2′-O-butyl-cAMP]", "values": [{"measurement": "competition with cGMP in binding to the cGMP binding sites of GST-cGB-PDE5", "setting": "[1]; 3H-cGMP 2 μM, 22° C., 1 hour", "value": "did not compete with cGMP in binding"}]}
{"smiles": "CCCCOC1C2OP(=O)(O)OCC2OC1n1cnc2c(=O)[nH]c(N)nc21", "note": "(centres unmarked) [2′-O-butyl-cGMP]", "values": [{"measurement": "competition with cGMP in binding to the cGMP binding sites of GST-cGB-PDE5", "setting": "[1]; 3H-cGMP 2 μM, 22° C., 1 hour", "value": "did not compete with cGMP in binding"}]}
{"smiles": "Nc1ncnc2c1ncn2[C@@H]1O[C@@H]2COP(=O)(O)O[C@H]2[C@H]1O", "note": "[Cyclic AMP]", "values": [{"measurement": "competition with cGMP in binding to the cGMP binding sites of GST-cGB-PDE5", "setting": "[1]", "value": "did not compete with cGMP in binding"}]}
{"smiles": "CC1=C(CC(=O)NCc2ccccc2)c2cc(F)ccc2/C1=C\\c1ccncc1", "note": "[Example 38, (Z)-5-Fluoro-2-Methyl-(4-Pyridylidene)-3-(N-Benzyl) Indenylacetamide Hydrochloride]", "values": [{"measurement": "competition with cGMP in binding to the cGMP binding sites of GST-cGB-PDE5", "setting": "[1]; 3H-cGMP 2 μM, 22° C., 1 hour", "value": "does not bind to the cGMP-binding site of PDE5"}, {"measurement": "apoptosis, fluorescent image of active caspase 3 (FIG. 8)", "setting": "U937 cells; 1 μM", "value": "undergoing apoptosis as reflected by the presence of active caspase 3"}, {"measurement": "effects", "setting": "[2]", "value": "labored breathing and/or abnormal respiratory sounds, decreased weights gains and food consumption ion male rats, and increased liver weights in female rats"}, {"measurement": "liver and thyroid weight increases at the lower doses", "setting": "28-day study in rats", "value": "not statistically significant"}, {"measurement": "clinical biochemistry and hematology", "setting": "[3]", "value": "no changes in clinical biochemistry and hematology were evident"}, {"measurement": "microscopic alterations of the liver", "setting": "[4]", "value": "no microscopic alterations"}, {"measurement": "competitive (with cGMP) binding to PDE 5", "setting": "PDE 5", "value": "does competitively (with cGMP) bind to PDE 5"}]}
{"smiles": "Nc1ccn([C@@H]2O[C@@H]3COP(=O)(O)O[C@H]3[C@H]2O)c(=O)n1", "note": "[cCMP, cyclic CMP]", "values": [{"measurement": "competition with cGMP in binding to the cGMP binding sites of GST-cGB-PDE5", "setting": "[1]; 3H-cGMP 2 μM, 22° C., 1 hour", "value": "did not compete with cGMP in binding"}]}
{"smiles": "O=c1ccn([C@@H]2O[C@@H]3COP(=O)(O)O[C@H]3[C@H]2O)c(=O)[nH]1", "note": "[cUMP, cyclic UMP]", "values": [{"measurement": "competition with cGMP in binding to the cGMP binding sites of GST-cGB-PDE5", "setting": "[1]; 3H-cGMP 2 μM, 22° C., 1 hour", "value": "did not compete with cGMP in binding"}]}
{"smiles": "COc1ccc(C2CNC(=O)C2)cc1OC1CCCC1", "note": "(centres unmarked) [rolipram]", "values": [{"measurement": "levels of apoptosis (active caspase 3)", "setting": "U937 cells; 0.5 μM", "value": "No increase in the levels of apoptosis compared to normal background"}]}
{"smiles": "CCCc1nn(C)c2c(=O)[nH]c(-c3cc(S(=O)(=O)N4CCN(C)CC4)ccc3OCC)nc12", "note": "[sildenafil]", "values": [{"measurement": "levels of apoptosis (active caspase 3)", "setting": "U937 cells; 0.3 nM", "value": "No increase in the levels of apoptosis compared to normal background"}]}
